According to patent US6642216B2, “Isoprenoid pathway inhibitors for stimulating bone growth” (ZymoGenetics Corporation, priority 1996, dated 2003):
Where “and” joins values, the source holds several entries; their conditions need not be identical. Identical values can stand only once.

Columns and labels:
[1] = test system: serum response element (SRE)-luciferase reporter gene / CRE-luciferase reporter gene; experiment: negative control OBSRE (SRE-luciferase) and/or glucagon (CRE-luciferase) assays; type: cell-based, murine
Text: In the negative control OBSRE assay, a murine osteoblast cell line, such as CCC-4 expressing a serum response element (SRE)-luciferase reporter gene is used (see WO96/07733). In the negative control glucagon assay, a glucagon receptor-positive BHK cell expressing a CRE-luciferase reporter gene is used (see U.S. Pat. No. 5,698,672).

[2] = test system: ovariectomized Sprague-Dawley rats; experiment: Acute OVX (prevention model) oral dosing; type: in vivo, rat
Protocol: Lead compounds can also be tested in acute ovariectomized animals (prevention model) using an in vivo dosing assay. Such assays may also include an estrogen-treated group as a control. An exemplary subcutaneous dosing assay is performed as follows:
In a typical study, 80 three-month-old female Sprague-Dawley rats are weight-matched and divided into eight groups, with ten animals in each group. This includes a baseline control group of animals sacrificed at the initiation of the study; three control groups (sham ovariectomized (sham OVX)+vehicle only; ovariectomized (OVX)+vehicle only; PBS-treated OVX); and a control OVX group that is administered a compound known to promote bone growth. Three dosage levels of the compound to be tested are administered to the remaining three groups of OVX animals.
Since ovariectomy (OVX) induces hyperphagia, all OVX animals are pair-fed with sham OVX animals throughout the 35 day study. Briefly, test compound, positive control compound, PBS, or vehicle alone is administered orally or subcutaneously once per day for 35 days. Alternatively, test compound can be formulated in implantable pellets that are implanted for 35 days, or may be administered orally, such as by gastric gavage. All animals, including sham OVX/vehicle and OVX/vehicle groups, are injected intraperitoneally with calcein nine days and two days before sacrifice (two injections of calcein administered each designated day, to ensure proper labeling of newly formed bone). Weekly body weights are determined. At the end of the 35-day cycle, the animals' blood and tissues are processed as described above.
(§1) Lovastatin and simvastatin were analyzed in vivo using an acute OVX (prevention model) and/or chronic (treatment model) OVX model system, as described above under “Additional In Vivo Assays”.
Lovastatin was examined in an acute OVX study. Briefly, 59-0326 was orally administered (35, 7, or 1.4 mg/kg/day; once per day for 35 days) immediately following ovariectomy. At the end of the study, the animals' blood and tissues samples were processed, and the following data were obtained.
Similarly, lovastatin was orally administered (0.1, 1, 5, 10, 20 or 40 mg/kg/day; once per day for 35 days) immediately following ovariectomy. Two individuals histomorphometrically analyzed samples removed from animals that received the 10 mg/kg/day dose. These analyses indicated an increase in trabecular bone volume of 38% (not significant) or 90% (p<0.02) in the proximal tibia. The bone formation rate in the proximal tibia was determined to have increased 74% (p=0.004) in animals that received a 10 mg/kg/day dose or 37% (p<0.008) in animals that received a 1 mg/kg/day dose. In samples from animals that received the 1 mg/kg/day dose, mineral apposition rate in the proximal tibia was increased 22%.

[3] = test system: osteoprogenitor cells cloned from bone marrow stroma; conditions: Cui et al. 1996; cited from earlier work
ovariectomized rats = experiment: Chronic OVX (treatment model) oral dosing; type: in vivo, rat; conditions: once per day for 10 weeks, from 6 weeks post-ovariectomy, not significant
Protocol: Lead compounds may also be tested in chronic OVX animals (treatment model). An exemplary protocol for treatment of established bone loss in ovariectomized animals that can be used to assess efficacy of anabolic agents may be performed as follows. Briefly, 80 to 100 six month old female, Sprague-Dawley rats are subjected to sham surgery (sham OVX) or ovariectomy (OVX) at time 0, and 10 rats are sacrificed to serve as baseline controls. Body weights are recorded weekly during the experiment. After approximately 6 weeks (42 days) or more of bone depletion, 10 sham OVX and 10 OVX rats are randomly selected for sacrifice as depletion period controls. Of the remaining animals, 10 sham OVX and 10 OVX rats are used as placebo-treated controls. The remaining OVX animals are treated with 3 to 5 doses of test drug for a period of 5 weeks (35 days). As a positive control, a group of OVX rats can be treated with an agent such as PTH, a known anabolic agent in this model (Kimmel, et al., Endocrinology (1993) 132:1577-84). […]
as §1
Simvastatin was also examined in a chronic OVX study. […] At the 50 mg/kg/day dose, an 86% (not significant) increase in the bone formation rate in the proximal tibia was measured.

[4] = 7 mg/kg/day oral, once per day for 35 days

dose-dependent stimulatory effect in control assays [1]	SMILES	increase in trabecular bone volume in the proximal tibia ([2]; 7 mg/kg/day oral, 35 days, histomorphometric analysis by two individuals (p<0.001; p=0.0503))	increase in trabecular bone volume in the distal femur ([2]; 7 mg/kg/day oral, 35 days, not significant) [%]	increase in bone formation rate in the distal femur ([2]; 7 mg/kg/day oral, 35 days, p=0.052) [%]	increase in cortical thickness (pQCT) [2, 4] [%]	increase in trabecular density (pQCT) [2, 4] [%]	increase in mineral apposition rate in the proximal tibia ([2]; second study, 1 mg/kg/day oral, 35 days) [%]	increase in bone formation rate in the proximal tibia ([2]; second study, 1 mg/kg/day oral, 35 days, p<0.008) [%]	increase in bone formation rate in the proximal tibia ([2]; second study, 10 mg/kg/day oral, 35 days, p=0.004) [%]	increase in trabecular bone volume in the proximal tibia ([2]; second study, 10 mg/kg/day oral, 35 days, two individuals (not significant; p<0.02), 10 mg/kg/day)	triglyceride vesicles accumulated on dexamethasone treatment [3]	increase in the bone formation rate in the proximal tibia (ovariectomized rats; 10 mg/kg/day oral) [%]	increase in the bone formation rate in the proximal tibia (ovariectomized rats; 50 mg/kg/day oral) [%]
not in control assays	CC[C@H](C)C(=O)O[C@H]1C[C@@H](C)C=C2C=C[C@H](C)[C@H](CC[C@@H]3C[C@@H](O)CC(=O)O3)[C@H]21 [Lovastatin, lovastatin]	110% and 25%	23	40	14	20	22	37	74	38% and 90%	diminished triglyceride vesicles	–	–
–	CCC(C)(C)C(=O)O[C@H]1C[C@@H](C)C=C2C=C[C@H](C)[C@H](CC[C@@H]3C[C@@H](O)CC(=O)O3)[C@H]21 [Simvastatin, simvastatin]	–	–	–	–	–	–	–	–	–	–	114	86
